The values below come from patent US20220073475A1, “5-MEMBERED HETEROARYL COMPOUNDS CONTAINING A HYDROXAMATE MOIETY AND THEIR USE” (UNIVERSITE DE LILLE, priority 2019, published 2022).

In data set [1] the test system is OPM2 cells. Kind of data set: CFZ potency increase, ratio of CC50 of CFZ alone / with compound. The class given is cell-based, human. An excerpt:
Human multiple myeloma cells OPM2 (ACC 50, DSMZ) are maintained at 0.3-0.7 10^6 cells/mL in RPMI1640 medium supplemented with GlutaMAX™, 10% fetal bovine serum and 1% penicillin-streptomycin.
(§1) We developed a cell-based, high content assay allowing the rapid detection and quantification of apoptotic cells. Caspase-3/7 activity was detected in real-time using the NucView™ 488 Caspase-3 substrate (Biotium), where the caspase-3/7 substrate peptide sequence DEVD is attached to a nucleic acid dye. The NucView™ 488 reagent crosses the plasma membrane to enter the cytoplasm, where the dye is unable to bind to DNA and remains non-fluorescent. Once the substrate has been cleaved by activated caspase-3/7 in apoptotic cells, the high-affinity DNA dye is released and migrates to the cell nucleus to stain the nucleus with a bright green fluorescence. All cell nuclei were also labeled with Hoechst 33342 (Ozyme).
For OPM2, briefly, nanoliters of compound and cytotoxic agent in DMSO stock solutions were first transferred and combined in 384-microtiter well plate using an Echo555 liquid handler (Labcyte). The exact volume of each solution to be transferred was calculated to achieve subsequently the target concentration in the 70 μL volume incubate. Final DMSO content was maintained at 0.2%. Then, 70 μL of cells treated with 1 μM NucView™ 488 and 20 ng/mL Hoechst 33342 were distributed to the plates to obtain a final density of 12,000 cells per well. The microplates were incubated at 37° C. and 5% CO2 in an automated LiCONiC STR240 UB cell incubator, and images were acquired at various times at 405 nm and 488 nm with the high-resolution automated confocal microscope INCell 6000 (GE). Four fields per well were read with the 20× objective in a confocal mode. The BioCel workstation was managed by VWorks automation control software
(§2) For all cells, Columbus software (Perkin) was used for image quantification and analysis. First, Hoechst 33342 staining was used for an automated detection of nuclei, in which the mean fluorescence intensity for NucView™ 488 was quantified. Inspection of control cells at initial time was used to set a threshold level of NucView™ 488 fluorescence to separate non apoptotic cells from apoptotic cells. Finally, for each well, the result was expressed as percentage of apoptotic cells in the total cell population. CC50 values were calculated from concentration-response curves by a nonlinear regression analysis at four parameters using Excel Fit or GraphPad Prim softwares.
(§3) Activity=(% of apoptotic cells with cytotoxic agent in combination with compound of the invention)/(% of apoptotic cells with cytotoxic agent alone). • Ratio of CC50: The CC50 of the cytotoxic agent was calculated in absence and in presence of a compound of the invention.
(§4) Activity=(CC50 of agent alone)/(CC50 of agent with compound). • Ratio of AUC. Activity=(Area of the dose-concentration curve of cytotoxic agent combined with one concentration of compound)/(Area of the dose-concentration curve of cytotoxic agent alone). (Lehar J. et al, 2008 (molecular systems biology 4:215)).

Data set [2] deals with HeLa cells. The data set is described as above. The class given is cell-based, human. The following applies: compound at 7.5 μM.
Text: Human HeLa cells (uterine cervical carcinoma) are maintained in DMEM medium supplemented with GlutaMAX™, 10% fetal bovine serum and 1% penicillin-streptomycin.
as §1
(§5) For HeLa and MCF7 cells, briefly, cells were seeded in 384-microtiter well plate (1500 HeLa cells or 5000 MCF7 cells in 40 μL full medium per well) and let to attach overnight. Then the compound of the invention and the RE stressor were transferred to the cell culture plate using an Echo555 liquid handler (Labcyte) and 30 μL medium containing NucView™ and Hoechst 33342 were added. Final NucView™ 488 and Hoechst 33342 concentrations were 1 μM and 20 ng/mL, respectively. DMSO content was maintained at 0.2%. The microplates were incubated at 37° C. and 5% CO2 in an automated LiCONiC STR240 UB cell incubator, and images were acquired at various times at 405 nm and 488 nm with the high-resolution automated confocal microscope INCell 6000 (GE). Four fields per well were read with the 20× objective in a confocal mode. The BioCel workstation was managed by VWorks automation control software (Agilent).
as §2, §3, §4

For data set [3], the system named is MCF7 cells. The data set is described as above. It is filed as cell-based, human. The following applies: MCF7, compound at 15 μM. On the procedure:
Human epithelial MCF7 cells (mammary gland adenocarcinoma) are maintained in EMEM medium supplemented with GlutaMAX™, 10% fetal bovine serum, 0.01 mg insulin and 1% penicillin-streptomycin.
as §1, §5, §2, §3, §4

Data set [4] concerns TLM1 cells. In words: X-ray radiation in combination with compound, propidium iodide dead cells, ratio of corrected AUC. It is filed as cell-based, canine. The following applies: for Potency of X-ray radiations in combination with compound (in words): TLM1; for Activity: ratio of corrected AUC of X-ray radiation in combination with compound / corrected AUC of X-ray radiation alone: TLM1, compound at 30 μM. On the procedure:
Canine melanoma TLM-1 cells are maintained in DMEM medium supplemented with GlutaMAX™, 10% fetal bovine serum, 1× Hepes and 1% penicillin-streptomycin.
TLM-1 cells were seeded with the BioTek MicroFlo™ dispenser in μClear® black 384-well plates (Greiner) at the density of 20,000 cells/mL in 50 μL. Compounds for pre-treatment were added 2 h after the seeding, using an Echo 550 (Labcyte). The next day, cells were washed five times with 40 μL media without phenol red with a plate washer (Hydrospeed, Tecan). Cells were irradiated with 4, 6, 8, 12, 16, 20 and 24 Gray (Gy). […] This step was repeated every 72 h after radiation. Plates were incubated at 37° C. and 5% CO2. […] 4 images per well were collected. Images were analyzed with Columbus software (Perkin Elmer). In this system we used predefined building blocks to measure different parameters on nuclei detected. We applied a threshold based on propidium iodide intensity in nuclei of controls to select and count dead cells. By dividing the number of dead cells by the number of nuclei detected we obtained the percentage of dead cells. AUC were determined in one experiment with triplicate incubates on percentage of cells labelled with propidium iodide and were corrected by the percentage of cells labelled with propidium iodide at 0 Gy. Ratio of AUC corrected was determined as followed: Activity=(Area of the dose-concentration curve of cytotoxic agent combined with one concentration of compound corrected by the effect of the compound alone at 0Gy)/(Area of the dose-concentration curve of radiation alone corrected by the effect of the vehicle at 0Gy).

The mark [5] stands for this setting: OPM2, compound at 7.5 μM (Table 5).
Where [6] appears, read: OPM2, compound at 7.5 μM (Table 6).

Consider `CC(NC(=O)c1ccc(F)c(F)c1)c1cn([C@@H](CC(=O)NO)Cc2ccc3ccccc3c2)nn1` (stereo in doubt) [Compound 86, 3,4-Difluoro-N-{1-[1-(1(R)-hydroxycarbamoylmethyl-2-naphthalen-2-yl-ethyl)-1H-[1,2,3]triazol-4-yl]-(R)-ethyl}-benzamide], for which the “Activity: ratio (CC50 of CFZ alone)/(CC50 of CFZ in combination with compound of the invention)” value stood at 1.7 in data set [1] (setting [5]), 1.7 in data set [1] (setting [6]), 2.6 in data set [2] and 1.7 in data set [3].

With `O=C(C[C@@H](Cc1ccc2ccccc2c1)n1nncc1CNC(=O)c1ccccc1)NO` [Compound 12, (R)—N-[3-(1-Hydroxycarbamoylmethyl-2-naphthalen-2-yl-ethyl)-3H-[1,2,3]triazol-4-ylmethyl]-benzamide], the “Activity: ratio (CC50 of CFZ alone)/(CC50 of CFZ in combination with compound of the invention)” value in data set [1] (setting [5]) was found to be 1.2; in data set [1] (setting [6]) it was 1.2; in data set [2] it was 2.4; in data set [3], 1.6.

As for `CC(C)C[C@H](NCc1cn([C@@H](CC(=O)NO)Cc2ccc3ccccc3c2)nn1)C(=O)OC(C)(C)C` [Compound 20], the “Activity: ratio (CC50 of CFZ alone)/(CC50 of CFZ in combination with compound of the invention)” value worked out at 2.1 in data set [1] (setting [5]), 2.1 in data set [1] (setting [6]), 6.3 in data set [2] and 3.4 in data set [3].

`O=C(C[C@@H](Cc1ccc2ccccc2c1)n1cc([C@@H]2CCCN2C(=O)c2ccc(F)c(F)c2)nn1)NO` [Compound 93, (3R)-3-[4-[(2S)-1-(3,4-difluorobenzoyl)pyrrolidin-2-yl]triazol-1-yl]-4-(2-naphthyl)butanehydroxamic acid]: the “Activity: ratio (CC50 of CFZ alone)/(CC50 of CFZ in combination with compound of the invention)” value in data set [1] (setting [5]) is recorded as 2.3. Further, in data set [4], the “Potency of X-ray radiations in combination with compound (in words)” value (“Potency of X-ray radiations” for short) is “increase the potency” and the “Activity: ratio of corrected AUC of X-ray radiation in combination with compound / corrected AUC of X-ray radiation alone” value is on record as 1.2.

Regarding `O=C(C[C@@H](Cc1ccc2c(c1)CCCC2)n1cc(CNC(=O)c2ccc(F)c(F)c2)nn1)NO` [Compound 144, (R)-3,4-difluoro-N-((1-(4-(hydroxyamino)-4-oxo-1-(5,6,7,8-tetrahydronaphthalen-2-yl)butan-2-yl)-1H-1,2,3-triazol-4-yl)methyl)benzamide], the “Activity: ratio (CC50 of CFZ alone)/(CC50 of CFZ in combination with compound of the invention)” value in data set [1] (OPM2, compound at a concentration of 3.7 μM (Table 5, footnote b)) is recorded as 1.8. In data set [4], the “Potency of X-ray radiations” value is “increase the potency” and the “Activity: ratio of corrected AUC of X-ray radiation in combination with compound / corrected AUC of X-ray radiation alone” value was determined as 2.4.

In the case of `CC(NC(=O)c1ccc(F)c(F)c1)c1cn([C@@H](CC(=O)NO)Cc2ccc3c(c2)CCCC3)nn1` (stereo partly drawn) [Compound 168, 3,4-difluoro-N-(1-(1-((R)-4-(hydroxyamino)-4-oxo-1-(5,6,7,8-tetrahydronaphthalen-2-yl)butan-2-yl)-1H-1,2,3-triazol-4-yl)ethyl)benzamide], the “Activity: ratio (CC50 of CFZ alone)/(CC50 of CFZ in combination with compound of the invention)” value in data set [1] (setting [5]) came out at 2.8. Further, in data set [4], the “Potency of X-ray radiations” value is “increase the potency” and the “Activity: ratio of corrected AUC of X-ray radiation in combination with compound / corrected AUC of X-ray radiation alone” value turned out to be 2.4.

Take `CN(Cc1cn([C@@H](CC(=O)NO)Cc2ccc3c(c2)CCCC3)nn1)C(=O)c1ccc(F)c(F)c1` [Compound 169, (R)-3,4-difluoro-N-((1-(4-(hydroxyamino)-4-oxo-1-(5,6,7,8-tetrahydronaphthalen-2-yl)butan-2-yl)-1H-1,2,3-triazol-4-yl)methyl)-N-methylbenzamide]: the “Activity: ratio (CC50 of CFZ alone)/(CC50 of CFZ in combination with compound of the invention)” value in data set [1] (setting [5]) was 3.3. In data set [4], the “Potency of X-ray radiations” value was “increase the potency” and the “Activity: ratio of corrected AUC of X-ray radiation in combination with compound / corrected AUC of X-ray radiation alone” value worked out at 2.5.

As for `O=C(C[C@@H](Cc1ccc2ccccc2c1)n1cc(CNC(=O)c2cccc(F)c2)nn1)NO` [Compound 184, (R)-3-fluoro-N-((1-(4-(hydroxyamino)-1-(naphthalen-2-yl)-4-oxobutan-2-yl)-1H-1,2,3-triazol-4-yl)methyl)benzamide], the “Activity: ratio (CC50 of CFZ alone)/(CC50 of CFZ in combination with compound of the invention)” value in data set [1] (setting [5]) was found to be 2.4.

Take `CN(Cc1cn([C@@H](CC(=O)NO)Cc2ccc3ccccc3c2)nn1)C(=O)c1ccc(F)cc1` [Compound 185, (R)-4-fluoro-N-((1-(4-(hydroxyamino)-1-(naphthalen-2-yl)-4-oxobutan-2-yl)-1H-1,2,3-triazol-4-yl)methyl)-N-methylbenzamide]: in data set [1] (setting [5]), the “Activity: ratio (CC50 of CFZ alone)/(CC50 of CFZ in combination with compound of the invention)” value came to 1.8.

For `O=C(C[C@@H](Cc1ccc2ccccc2c1)n1cc(C2CSCN2C(=O)c2ccc(F)cc2)nn1)NO` (stereo partly drawn) [Compound 186, (3R)-3-(4-(3-(4-fluorobenzoyl)thiazolidin-4-yl)-1H-1,2,3-triazol-1-yl)-N-hydroxy-4-(naphthalen-2-yl)butanamide], the “Activity: ratio (CC50 of CFZ alone)/(CC50 of CFZ in combination with compound of the invention)” value in data set [1] (setting [5]) was 2.9. Moreover, in data set [4], the “Potency of X-ray radiations” value is “increase the potency” and the “Activity: ratio of corrected AUC of X-ray radiation in combination with compound / corrected AUC of X-ray radiation alone” value is given as 2.0.

Consider `O=C(C[C@@H](Cc1ccc2ccccc2c1)n1cc(C2CCCCN2C(=O)c2ccc(F)cc2)nn1)NO` (stereo partly drawn) [Compound 187, (3R)-3-(4-(1-(4-fluorobenzoyl)piperidin-2-yl)-1H-1,2,3-triazol-1-yl)-N-hydroxy-4-(naphthalen-2-yl)butanamide], for which the “Activity: ratio (CC50 of CFZ alone)/(CC50 of CFZ in combination with compound of the invention)” value in data set [1] (setting [5]) was 3.4. Further, in data set [4], the “Potency of X-ray radiations” value is listed as “increase the potency” and the “Activity: ratio of corrected AUC of X-ray radiation in combination with compound / corrected AUC of X-ray radiation alone” value is listed as 2.4.
